# Values of other authors, collected in PubChem BioAssay AID1259409 (Chemical Carcinogenesis Research Information System (CCRIS), 2018).
# Several values for one entry are separate records, joined by “and”; a condition that tells them apart may be missing. Identical values can stand only once.
# Test system: rodent chemically induced tumor inhibition, incidence and multiplicity
# Test: CCRIS tumor inhibitor studies
# Details: for tumour outcome (control, treated, inhibition, significance): Carcinogen: 7,12-DIMETHYLBENZ[A]ANTHRACENE, 57-97-6
compound,measurement,setting,value
COc1ccc2c(c1)c(CC(=O)O)c(C)n2C(=O)c1ccc(Cl)cc1,outcome,"Carcinogen: 4-HYDROXYBUTYL(BUTYL)NITROSAMINE [3817-11-6], Dose [Inhibitor]: 20 MG/KG IN DIET 1 WK BEFORE CARCINOGEN (STUDY DURATION: 32 WK), Route [Inhibitor]: DIET, Species: MOUSE, Strain/Sex: B6D2F1/MALE, Target Tissue: Type of Lesion: BLADDER: CARCINOMA, Dose [Carcinogen]: 7.5 MG/WK FOR 12 WK","32, 3, 91%"
same,outcome,"Carcinogen: 4-HYDROXYBUTYL(BUTYL)NITROSAMINE [3817-11-6], Dose [Inhibitor]: 20 MG/KG IN DIET 20 WK AFTER LAST CARCINOGEN DOSE (STUDY DURATION: 61 WK), Route [Inhibitor]: DIET, Species: MOUSE, Strain/Sex: B6D2F1/MALE, Target Tissue: Type of Lesion: BLADDER: CARCINOMA, Dose [Carcinogen]: 7.5 MG/WK FOR 12 WK","66, 42, 36%"
same,outcome,"Carcinogen: 4-HYDROXYBUTYL(BUTYL)NITROSAMINE [3817-11-6], Dose [Inhibitor]: 20 MG/KG IN DIET FOR 30 WK AT 1 WK AFTER LAST CARCINOGEN TREATMENT (STUDY DURATION: 42 WK), Route [Inhibitor]: DIET, Species: MOUSE, Strain/Sex: B6D2F1/MALE, Target Tissue: Type of Lesion: BLADDER: CARCINOMA, Dose [Carcinogen]: 7.5 MG/WK FOR 12 WK","31, 7, 77%"
same,"tumour outcome (control, treated, inhibition, significance)","Dose [Inhibitor]: 0, 0.004% IN 20% FAT DIET CONTAINING 0.5% LINOLEIC ACID BEGINNING 7 D POST CARCINOGEN DOSE AND CONTINUING FOR DURATION O, Route [Inhibitor]: ORAL, Species: RAT, Strain/Sex: SPRAGUE-DAWLEY/FEMALE, Target Tissue: Type of Lesion: MAMMARY GLAND: ADENOCARCINOMA, Dose [Carcinogen]: 5 MG AT 50-53 DAYS OF AGE, Promoter: NONE USED","56%, 62%, -11%, not calculated"
same,"tumour outcome (control, treated, inhibition, significance)","Dose [Inhibitor]: 0, 0.004% IN 20% FAT DIET CONTAINING 4% LINOLEIC ACID BEGINNING 7 D POST CARCINOGEN DOSE AND CONTINUING FOR DURATION OF, Route [Inhibitor]: ORAL, Species: RAT, Strain/Sex: SPRAGUE-DAWLEY/FEMALE, Target Tissue: Type of Lesion: MAMMARY GLAND: ADENOCARCINOMA, Dose [Carcinogen]: 5 MG AT 50-53 DAYS OF AGE, Promoter: NONE USED","53%, 39%, 26%, not calculated"
same,"tumour outcome (control, treated, inhibition, significance)","Dose [Inhibitor]: 0, 0.004% IN 20% FAT DIET CONTAINING 12% LINOLEIC ACID BEGINNING 7 D POST CARCINOGEN DOSE AND CONTINUING FOR DURATION OF, Route [Inhibitor]: ORAL, Species: RAT, Strain/Sex: SPRAGUE-DAWLEY/FEMALE, Target Tissue: Type of Lesion: MAMMARY GLAND: ADENOCARCINOMA, Dose [Carcinogen]: 5 MG AT 50-53 DAYS OF AGE, Promoter: NONE USED","69%, 50%, 28%, not calculated"
same,"tumour outcome (control, treated, inhibition, significance)","Dose [Inhibitor]: 0, 0.005% IN HIGH-FAT (20% CORN OIL) DIET BEGINNING 7 D POST CARCINOGEN DOSE (STUDY DURATION: 20 WK), Route [Inhibitor]: ORAL, Species: RAT, Strain/Sex: SPRAGUE-DAWLEY/FEMALE, Target Tissue: Type of Lesion: MAMMARY GLAND: ADENOCARCINOMA, Dose [Carcinogen]: 5 MG ONCE, Promoter: NONE USED","26/32 (81%), 10/33 (30%), 63%, not calculated"
same,"tumour outcome (control, treated, inhibition, significance)","Dose [Inhibitor]: 0, 0.005% IN HIGH-FAT DIET BEGINNING 7 D POST CARCINOGEN TREATMENT (STUDY DURATION: 48 WK), Route [Inhibitor]: ORAL, Species: RAT, Strain/Sex: SPRAGUE-DAWLEY/FEMALE, Target Tissue: Type of Lesion: MAMMARY GLAND: ADENOCARCINOMA, Dose [Carcinogen]: 5 MG ONCE AT 50 D OF AGE, Promoter: NONE USED","93%, 47%, 49%, p<0.01"
same,"tumour outcome (control, treated, inhibition, significance)","Dose [Inhibitor]: 0, 0.005% IN LOW-FAT (0.5% CORN OIL) DIET BEGINNING 7 D POST CARCINOGEN DOSE (STUDY DURATION: 20 WK), Route [Inhibitor]: ORAL, Species: RAT, Strain/Sex: SPRAGUE-DAWLEY/FEMALE, Target Tissue: Type of Lesion: MAMMARY GLAND: ADENOCARCINOMA, Dose [Carcinogen]: 5 MG ONCE, Promoter: NONE USED","9/33 (27%), 11/32 (34%), -26%, not calculated"
same,"tumour outcome (control, treated, inhibition, significance)","Dose [Inhibitor]: 0, 0.005% IN LOW-FAT DIET BEGINNING 7 D POST CARCINOGEN TREATMENT (STUDY DURATION: 48 WK), Route [Inhibitor]: ORAL, Species: RAT, Strain/Sex: SPRAGUE-DAWLEY/FEMALE, Target Tissue: Type of Lesion: MAMMARY GLAND: ADENOCARCINOMA, Dose [Carcinogen]: 5 MG ONCE AT 50 D OF AGE, Promoter: NONE USED","40%, 33%, 18%, not significant"
same,"tumour outcome (control, treated, inhibition, significance)","Dose [Inhibitor]: 0, 0.1 UMOL 2/WK FOR 18 WK APPLIED 10-15 MIN PRIOR TO EACH PROMOTER DOSE (STUDY DURATION: 20 WK), Route [Inhibitor]: DERMAL, Species: MOUSE, Strain/Sex: CD-1/FEMALE, Target Tissue: Type of Lesion: SKIN: TUMOR, Dose [Carcinogen]: 200 NMOL ONCE, Promoter: 12-O-TETRADECANOYL-13-ACETATE, 16561-29-8","95%, 80%, 16%, not significant"
same,"tumour outcome (control, treated, inhibition, significance)","Dose [Inhibitor]: 0, 0.3 UMOL 2/WK FOR 18 WK APPLIED 10-15 MIN PRIOR TO EACH PROMOTER DOSE (STUDY DURATION: 20 WK), Route [Inhibitor]: DERMAL, Species: MOUSE, Strain/Sex: CD-1/FEMALE, Target Tissue: Type of Lesion: SKIN: TUMOR, Dose [Carcinogen]: 200 NMOL ONCE, Promoter: 12-O-TETRADECANOYL-13-ACETATE, 16561-29-8","100%, 95%, 5%, not significant"
same,"tumour outcome (control, treated, inhibition, significance)","Dose [Inhibitor]: 0, 20 UG/ML IN DRINKING WATER 24 HR/D 3 D/WK FOR 26 WK BEGINNING AT 45 D OF AGE (STUDY DURATION: 26 WK), Route [Inhibitor]: ORAL, Species: RAT, Strain/Sex: SD/FEMALE, Target Tissue: Type of Lesion: MAMMARY GLAND: TUMOR, Dose [Carcinogen]: 10 UG/ANIMAL IN CORN OIL INTRAGASTRICALLY ON 45, 50, 55 D OF AGE","100%, 37%, 63%, p<0.001"
same,"tumour outcome (control, treated, inhibition, significance)","Dose [Inhibitor]: 0.004% DIET FOR 22 WK STARTING 3 D AFTER CARCINOGEN ADMINISTRATION (STUDY DURATION: 22 WK), Route [Inhibitor]: ORAL, Species: RAT, Strain/Sex: SPRAGUE-DAWLEY/FEMALE, Target Tissue: Type of Lesion: MAMMARY GLANDS: ADENOCARCINOMA, Dose [Carcinogen]: 5 MG ONCE, Promoter: NONE USED","44%, 41%, 7%, not significant and 59%, 38%, 36%, not significant"
same,"tumour outcome (control, treated, inhibition, significance)","Dose [Inhibitor]: 28 NMOL IN 0.2 ML ACETONE APPLIED 2/WK FOR 16 WK 5 HR BEFORE EACH PROMOTER APPLICATION BEGINNING 2 WK POST CARCINOGEN TR, Route [Inhibitor]: DERMAL, Species: MOUSE, Strain/Sex: CD-1/FEMALE, Target Tissue: Type of Lesion: SKIN: PAPILLOMA, Dose [Carcinogen]: 0.2 UMOL IN 0.2 ML ACETONE ONCE, Promoter: 12-O-TETRADECANOYLPHORBOL-13-ACETATE, 16561-29-8","100%, 97%, 3%, not significant"
same,"tumour outcome (control, treated, inhibition, significance)","Dose [Inhibitor]: 280 NMOL IN 0.2 ML ACETONE APPLIED 2/WK FOR 16 WK 5 HR BEFORE EACH PROMOTER APPLICATION BEGINNING 2 WK POST CARCINOGEN D, Route [Inhibitor]: DERMAL, Species: MOUSE, Strain/Sex: CD-1/FEMALE, Target Tissue: Type of Lesion: SKIN: PAPILLOMA, Dose [Carcinogen]: 0.2 UMOL IN 0.2 ML ACETONE ONCE, Promoter: 12-O-TETRADECANOYLPHORBOL-13-ACETATE, 16561-29-8","100%, 88%, 12%, not significant"
same,"tumour outcome (control, treated, inhibition, significance)","Dose [Inhibitor]: 280 NMOL IN 0.2 ML ACETONE APPLIED 2/WK FOR 20 WK 2 HR BEFORE EACH PROMOTER APPLICATION BEGINNING 2 WK POST CARCINOGEN D, Route [Inhibitor]: DERMAL, Species: MOUSE, Strain/Sex: CD-1/FEMALE, Target Tissue: Type of Lesion: SKIN: PAPILLOMA, Dose [Carcinogen]: 0.2 UMOL IN 0.2 ML ACETONE ONCE, Promoter: 12-O-TETRADECANOYLPHORBOL-13-ACETATE, 16561-29-8","90%, 84%, 7%, not significant"
same,outcome,"Carcinogen: ACETOXYMETHYL(METHYLNITROSAMINE), 56856-83-8, Dose [Inhibitor]: 0, 0.001% IN DRINKING WATER FOR 10 WK ADMINISTERED CONCURRENTLY WITH CARCINOGEN TREATMENT (STUDY DURATION: 31 WK), Route [Inhibitor]: ORAL, Species: RAT, Strain/Sex: SPRAGUE-DAWLEY/MALE, Target Tissue: Type of Lesion: LARGE BOWEL: TUMORS, Dose [Carcinogen]: 2 MG/KG BW 1/WK FOR 10 WK, Promoter: NONE USED","28/29 (97%), 30/30 (100%), -3%, not significant at 21 wk; 20/20 (100%), 17/17 (1"
same,outcome,"Carcinogen: ACETOXYMETHYL(METHYLNITROSAMINE), 56856-83-8, Dose [Inhibitor]: 0, 0.001% IN DRINKING WATER FOR 10 WK BEGINNING POST CARCINOGEN TREATMENT (STUDY DURATION: 31 WK), Route [Inhibitor]: ORAL, Species: RAT, Strain/Sex: SPRAGUE-DAWLEY/MALE, Target Tissue: Type of Lesion: LARGE BOWEL: TUMORS, Dose [Carcinogen]: 2 MG/KG BW 1/WK FOR 10 WK, Promoter: NONE USED","28/29 (97%), 29/29 (100%), -3%, not significant at 21 wk; 20/20 (100%), 18/18 (1"
same,outcome,"Carcinogen: ACETOXYMETHYL(METHYLNITROSAMINE), 56856-83-8, Dose [Inhibitor]: 0, 0.001% IN DRINKING WATER FOR 20 WK ADMINISTERED CONCURRENTLY WITH CARCINOGEN TREATMENT AND CONTINUED FOR 10 WK POST C, Route [Inhibitor]: ORAL, Species: RAT, Strain/Sex: SPRAGUE-DAWLEY/MALE, Target Tissue: Type of Lesion: LARGE BOWEL: TUMORS, Dose [Carcinogen]: 2 MG/KG BW 1/WK FOR 10 WK, Promoter: NONE USED","28/29 (97%), 27/30 (90%), 7%, not significant at 21 wk; 20/20 (100%), 20/20 (100"
